How the values were obtained:
Type in all cases: in vivo
[1] = tested on: redroot pigweed (Amaranthus retroflexus, AMARE); assay: Pre-emerge test, greenhouse herbicide activity screening; conditions: rated 14 days after application, 0 = no damage, 100 = complete death
In short: (§1)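 Plants grown in 10 cm pots of sandy loam mix received acetone-dissolved compounds through a moving flat-fan nozzle. Doses ranged from 15 to 1000 g ai/ha. Pre-emerge pots were seeded one day earlier, post-emerge pots 8–21 days earlier. Fourteen days on, each pot was graded 0–100 for damage.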

[2] = tested on: upland rice (Oryza sp., var. Tebonnet, RICE); assay: Pre-emerge test, crop safety; conditions: rated 14 days after application, 0 = no damage, 100 = complete death
In short: (§2)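 Visual ratings on a 0-100 scale (0 no damage, 100 all plants dead) were taken at 14 days after treatment. Rates of 15-1000 g ai/ha in acetone, 187 l/ha, were sprayed onto soil one day after planting (pre-emerge) or onto 2-3 leaf plants with 0.25% v/v surfactant (post-emerge).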

[3] = tested on: field corn (Zea mays L., var. Dekalb 535, CORN); assay: Pre-emerge test, crop safety; conditions: rated 14 days after application, 0 = no damage, 100 = complete death
In short: as §2

[4] = tested on: lambsquarters (Chenopodium album, CHEAL); assay: Pre-emerge test, greenhouse herbicide activity screening; conditions: rated 14 days after application, 0 = no damage, 100 = complete death
In short: as §1

[5] = tested on: ivyleaf morningglory (Ipomoea hederacea, IPOHE); assay: as above; conditions: rated 14 days after application, 0 = no damage, 100 = complete death
In short: as §1

[6] = tested on: barnyardgrass (Echinochloa crus-galli, ECHCG); assay: as above; conditions: rated 14 days after application, 0 = no damage, 100 = complete death
In short: as §1

[7] = tested on: common ragweed (Ambrosia artemisizfolia L., AMBEL); assay: as above; conditions: rated 14 days after application, 0 = no damage, 100 = complete death
In short: as §1

[8] = tested on: johnsongrass (Sorghum halepense, SORHA); assay: as above; conditions: rated 14 days after application, 0 = no damage, 100 = complete death
In short: as §1

[9] = tested on: large crabgrass (Digitaria sanguinalis, DIGSA); assay: as above; conditions: rated 14 days after application, 0 = no damage, 100 = complete death
In short: as §1

[10] = tested on: green foxtail (Setaria viridis, SETVI); assay: as above; conditions: rated 14 days after application, 0 = no damage, 100 = complete death
In short: as §1

[11] = tested on: velvetleaf (Abutilon theophrasti, ABUTH); assay: as above; conditions: rated 14 days after application, 0 = no damage, 100 = complete death
In short: as §1

[12] = tested on: sicklepod (Cassia obtusifolia, CASOB); assay: as above; conditions: rated 14 days after application, 0 = no damage, 100 = complete death
In short: as §1

[13] = tested on: redroot pigweed (Amaranthus retroflexus, AMARE); assay: Post-emerge test, greenhouse herbicide activity screening; conditions: post-emerge, 14 days after application, rating scale 0-100
In short: (§3)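 Applied at 15–1000 g ai/ha from acetone in 187 l/ha spray volume. Post-emergence applications included 0.25% v/v non-ionic surfactant and reached plants sown 8–21 days before. Pre-emergence applications were incorporated by surface watering. Efficacy or crop damage was rated on a 0–100 scale after 14 days.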

[14] = tested on: lambsquarters (Chenopodium album, CHEAL); assay: as above; conditions: post-emerge, 14 days after application, rating scale 0-100
In short: as §3

[15] = tested on: ivyleaf morningglory (Ipomoea hederacea, IPOHE); assay: as above; conditions: post-emerge, 14 days after application, rating scale 0-100
In short: as §3

[16] = tested on: barnyardgrass (Echinochloa crus-galli, ECHCG); assay: as above; conditions: post-emerge, 14 days after application, rating scale 0-100
In short: as §3

[17] = tested on: common ragweed (Ambrosia artemisizfolia L., AMBEL); assay: as above; conditions: post-emerge, 14 days after application, rating scale 0-100
In short: as §3

[18] = tested on: johnsongrass (Sorghum halepense, SORHA); assay: as above; conditions: post-emerge, 14 days after application, rating scale 0-100
In short: as §3

[19] = tested on: large crabgrass (Digitaria sanguinalis, DIGSA); assay: as above; conditions: post-emerge, 14 days after application, rating scale 0-100
In short: as §3

[20] = tested on: green foxtail (Setaria viridis, SETVI); assay: as above; conditions: post-emerge, 14 days after application, rating scale 0-100
In short: as §3

[21] = tested on: velvetleaf (Abutilon theophrasti, ABUTH); assay: as above; conditions: post-emerge, 14 days after application, rating scale 0-100
In short: as §3

[22] = tested on: sicklepod (Cassia obtusifolia, CASOB); assay: as above; conditions: post-emerge, 14 days after application, rating scale 0-100
In short: as §3

[23] = tested on: upland rice (Oryza sp., var. Tebonnet, RICE); assay: Post-emerge test, crop safety; conditions: post-emerge, 14 days after application, rating scale 0-100
In short: (§4)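 Each test used a mechanized track sprayer delivering 187 l/ha of acetone solution at 15–1000 g ai/ha. Post-emerge foliage at 2–3 leaves was treated with added 0.25% v/v non-ionic surfactant and bottom-watered only. Injury was assessed on day 14, where 100 means total kill.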

[24] = tested on: field corn (Zea mays L., var. Dekalb 535, CORN); assay: Post-emerge test, crop safety; conditions: post-emerge, 14 days after application, rating scale 0-100
In short: as §4

COc1c(Cl)cc(F)c(-n2c(=O)cc(C(F)(F)F)n(C)c2=O)c1NC(=O)c1cc(F)cc(F)c1 [2-50]
100: Pre-emerge Herbicidal Activity, phytotoxicity rating (0-100), AMARE ([1]; 63 g ai/ha) | Pre-emerge Herbicidal Activity, phytotoxicity rating (0-100), AMARE ([1]; 250 g ai/ha) | Pre-emerge Herbicidal Activity, phytotoxicity rating (0-100), CHEAL ([4]; 63 g ai/ha) | Pre-emerge Herbicidal Activity, phytotoxicity rating (0-100), CHEAL ([4]; 250 g ai/ha) | Pre-emerge Herbicidal Activity, phytotoxicity rating (0-100), IPOHE ([5]; 250 g ai/ha) | Pre-emerge Herbicidal Activity, phytotoxicity rating (0-100), ECHCG ([6]; 250 g ai/ha) | Pre-emerge Herbicidal Activity, phytotoxicity rating (0-100), AMBEL ([7]; 250 g ai/ha) | Pre-emerge Herbicidal Activity, phytotoxicity rating (0-100), DIGSA ([9]; 250 g ai/ha) | Pre-emerge Herbicidal Activity, phytotoxicity rating (0-100), SETVI ([10]; 250 g ai/ha) | Pre-emerge Herbicidal Activity, phytotoxicity rating (0-100), ABUTH ([11]; 63 g ai/ha) | Pre-emerge Herbicidal Activity, phytotoxicity rating (0-100), ABUTH ([11]; 250 g ai/ha) | Pre-emerge Herbicidal Activity, phytotoxicity rating (0-100), CASOB ([12]; 250 g ai/ha) | phytotoxicity rating AMARE ([13]; 250 g ai/ha) | phytotoxicity rating IPOHE ([15]; 63 g ai/ha) | phytotoxicity rating IPOHE ([15]; 250 g ai/ha) | phytotoxicity rating ABUTH ([21]; 63 g ai/ha) | phytotoxicity rating ABUTH ([21]; 250 g ai/ha)
5: Pre-emerge phytotoxicity rating (0-100), crop damage, CORN ([3]; 63 g ai/ha)
30: Pre-emerge Herbicidal Activity, phytotoxicity rating (0-100), SORHA ([8]; 63 g ai/ha) | phytotoxicity rating ECHCG ([16]; 250 g ai/ha) | phytotoxicity rating DIGSA ([19]; 250 g ai/ha)
90: Pre-emerge phytotoxicity rating (0-100), crop damage, RICE ([2]; 250 g ai/ha) | Pre-emerge Herbicidal Activity, phytotoxicity rating (0-100), SETVI ([10]; 63 g ai/ha) | phytotoxicity rating AMARE ([13]; 63 g ai/ha) | phytotoxicity rating CHEAL ([14]; 250 g ai/ha) | phytotoxicity rating CASOB ([22]; 250 g ai/ha)
70: Pre-emerge phytotoxicity rating (0-100), crop damage, CORN ([3]; 250 g ai/ha) | Pre-emerge Herbicidal Activity, phytotoxicity rating (0-100), IPOHE ([5]; 63 g ai/ha) | Pre-emerge Herbicidal Activity, phytotoxicity rating (0-100), DIGSA ([9]; 63 g ai/ha) | phytotoxicity rating CHEAL ([14]; 63 g ai/ha) | phytotoxicity rating CORN ([24]; 250 g ai/ha)
40: phytotoxicity rating AMBEL ([17]; 63 g ai/ha) | phytotoxicity rating SORHA ([18]; 250 g ai/ha) | phytotoxicity rating SETVI ([20]; 63 g ai/ha)
25: Pre-emerge phytotoxicity rating (0-100), crop damage, RICE ([2]; 63 g ai/ha)
80: Pre-emerge Herbicidal Activity, phytotoxicity rating (0-100), SORHA ([8]; 250 g ai/ha) | phytotoxicity rating CASOB ([22]; 63 g ai/ha)
10: Pre-emerge Herbicidal Activity, phytotoxicity rating (0-100), ECHCG ([6]; 63 g ai/ha) | phytotoxicity rating DIGSA ([19]; 63 g ai/ha) | phytotoxicity rating CORN ([24]; 63 g ai/ha)
0: phytotoxicity rating ECHCG ([16]; 63 g ai/ha) | phytotoxicity rating SORHA ([18]; 63 g ai/ha)
60: Pre-emerge Herbicidal Activity, phytotoxicity rating (0-100), AMBEL ([7]; 63 g ai/ha) | Pre-emerge Herbicidal Activity, phytotoxicity rating (0-100), CASOB ([12]; 63 g ai/ha) | phytotoxicity rating SETVI ([20]; 250 g ai/ha) | phytotoxicity rating RICE ([23]; 63 g ai/ha)
65: phytotoxicity rating AMBEL ([17]; 250 g ai/ha) | phytotoxicity rating RICE ([23]; 250 g ai/ha)

Reference: patent publication US6355799B1, “Substituted benzene compounds, process for their preparation, and herbicidal and defoliant compositions containing them” (ISK Americas Incorporated, priority 1997, dated 2002)
